PMC6214715 (Journal of veterinary pharmacology and therapeutics, 2018)

Legend:
human liver microsomes = assay type: in vitro ADME; conditions: pooled human liver microsomes (n = 48); (+)-M1 at 10 μM, (+)-M2 at 0.5 μM
CYP2C21 = molecular target: T1, CYP2C21 (Canis lupus familiaris, UniProt P56594); assay type: in vitro ADME, canine; conditions: recombinant CYP2C21; (+)-M1 10 μM, (+)-M2 0.5 μM
T1 sequence (P56594 1-487): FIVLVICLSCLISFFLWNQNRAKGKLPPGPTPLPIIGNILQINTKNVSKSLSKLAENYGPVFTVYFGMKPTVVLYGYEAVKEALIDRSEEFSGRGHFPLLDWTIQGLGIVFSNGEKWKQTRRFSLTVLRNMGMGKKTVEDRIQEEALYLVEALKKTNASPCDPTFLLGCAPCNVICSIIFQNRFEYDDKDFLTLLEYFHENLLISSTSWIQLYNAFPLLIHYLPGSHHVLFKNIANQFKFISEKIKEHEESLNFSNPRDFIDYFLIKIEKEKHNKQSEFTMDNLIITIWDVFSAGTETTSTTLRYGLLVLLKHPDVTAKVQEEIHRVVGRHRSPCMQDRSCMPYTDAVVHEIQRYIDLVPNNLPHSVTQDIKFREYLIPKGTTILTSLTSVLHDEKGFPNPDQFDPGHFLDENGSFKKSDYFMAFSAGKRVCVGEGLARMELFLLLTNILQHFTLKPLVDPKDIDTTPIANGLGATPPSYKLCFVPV

CYP2B11 = molecular target: T2, CYP2B11 (Canis lupus familiaris, UniProt P24460); assay type: in vitro ADME, canine; conditions: recombinant CYP2B11; (+)-M1 10 μM, (+)-M2 0.5 μM
T2 sequence (P24460 1-494): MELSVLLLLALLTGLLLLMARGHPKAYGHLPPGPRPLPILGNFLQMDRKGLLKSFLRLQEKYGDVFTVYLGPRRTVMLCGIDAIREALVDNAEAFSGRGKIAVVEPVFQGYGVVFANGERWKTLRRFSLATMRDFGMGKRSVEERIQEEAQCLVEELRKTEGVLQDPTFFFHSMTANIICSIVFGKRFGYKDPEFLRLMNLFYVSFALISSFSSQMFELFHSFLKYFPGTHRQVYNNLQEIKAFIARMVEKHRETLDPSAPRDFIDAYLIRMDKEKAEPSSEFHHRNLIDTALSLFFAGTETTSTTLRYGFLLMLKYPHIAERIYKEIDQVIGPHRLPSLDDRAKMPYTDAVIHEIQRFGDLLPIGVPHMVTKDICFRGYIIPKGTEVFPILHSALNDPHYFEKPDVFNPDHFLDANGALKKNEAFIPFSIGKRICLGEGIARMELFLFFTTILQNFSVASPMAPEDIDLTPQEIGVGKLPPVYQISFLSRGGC

In the case of CN(C)CC1CCCCC1(O)c1cccc(O)c1.Cl (single isomer, unassigned; (+)) [(+)-M1, (+)-O-desmethyltramadol hydrochloride], the “(+)-M5 formation rate (in words)” value (human liver microsomes) was “low activities”, the “formation rate of (+)-M5 (in words)” value (CYP2C21) was “highest” and the “formation rate of (+)-M5 (in words)” value (CYP2B11) was “somewhat lower activities”.
